The values below are quoted from earlier work in paper PMC6044708 (ACS Omega, 2016).

In one series the test system is Gram-positive bacteria. Conditions: comparison in words.
The test system of a further series is E. coli. Conditions: Gram (−), ATCC strain; reference compound.
In another series the test system is P. aeruginosa. The note with it: Gram (−), ATCC strain; reference compound.
In the next series the test system is S. aureus. Conditions: Gram (+), ATCC strain; reference compound.
A further series concerns B. subtilis. Conditions: Gram (+), ATCC strain; reference compound.

Regarding “Arg10–teixobactin [Arg10–teixobactin (2)]”, in the series on Gram-positive bacteria, the “activity compared with the parent compound teixobactin (1)” value is reported as 1 order of magnitude less active. The “MIC E. coli” value in the series on E. coli was 64 µg/mL. The “MIC P. aeruginosa” value in the series with P. aeruginosa is on record as “no activity”. Besides, in the series with S. aureus, the “MIC S. aureus” value is 2 µg/mL. Besides, the “MIC B. subtilis” value in the series with B. subtilis is 0.5 µg/mL.

Regarding Lys10–teixobactin, in the series on Gram-positive bacteria, the “activity compared with Arg10–teixobactin (2)” value is reported as “more active”.
